“And” between values parts separate entries of the source, which are not always exact repeats. Equal values may be shown once. Read-outs that look alike come from different tables or passages of the source.
What was measured:
mtrC-lacZ expression = assay type: cell-based, Neisseria gonorrhoeae; conditions: for β-galactosidase activity, Mean: second (right) untitled block of sheet Figure S10 (mtrC); for mtrC-lacZ β-galactosidase activity, Mean: left block of sheet (mtrCDE); for β-galactosidase activity, mtrC-lacZ, Mean: strain ΔmtrR + mtrR WT (pGCC3-mtrR); for Plate-6 (Testosterone) Miller units, Mean: upper four plate rows; for Miller units, Mean: right block Plate-4
MtrR D171A = target: T1, MtrR D171A (Neisseria gonorrhoeae, UniProt P39897, D171A); experiment: biochemical; assay type: binding
T1 construct: Hexa-histidine tag with TEV protease cleavage site (N, cleaved yes); made in house; host or cells: E. coli Rosetta Gami B(DE3) pLysS
T1 sequence (P39897 whole entry D171A): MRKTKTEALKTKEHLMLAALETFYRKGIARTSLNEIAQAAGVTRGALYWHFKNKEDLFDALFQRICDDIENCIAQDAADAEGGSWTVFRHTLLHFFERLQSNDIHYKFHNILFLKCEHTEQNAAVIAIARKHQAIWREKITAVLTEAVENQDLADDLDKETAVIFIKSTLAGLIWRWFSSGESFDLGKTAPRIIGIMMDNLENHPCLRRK

[1] = strain ΔmtrR + mtrR WT, 25 µM hormone
[2] = strain ΔmtrR + mtrR WT, 50 µM hormone

C[C@]12CC[C@H]3[C@@H](CCC4=CC(=O)CC[C@@]43C)[C@@H]1CC[C@@H]2O [Testosterone, testosterone]
β-galactosidase activity, Mean (mtrC-lacZ expression; strain ΔmtrR + mtrR R176E, 50 µM hormone): 83 Miller units
mtrC-lacZ β-galactosidase activity, Mean (mtrC-lacZ expression; strain ΔmtrR + mtrR R176E, 100 µM hormone): 238 Miller units
β-galactosidase activity, mtrC-lacZ, Mean (mtrC-lacZ expression; hormone 6.25 µM): 125 Miller units
β-galactosidase activity, mtrC-lacZ, Mean (mtrC-lacZ expression; hormone 12.5 µM): 130 Miller units
β-galactosidase activity, mtrC-lacZ, Mean (mtrC-lacZ expression; hormone 25 µM): 133 Miller units
β-galactosidase activity, mtrC-lacZ, Mean (mtrC-lacZ expression; hormone 50 µM): 152 Miller units
mtrC-lacZ β-galactosidase activity, Mean (mtrC-lacZ expression; strain ΔmtrR + mtrR WT, 1 µM hormone): 107 Miller units
β-galactosidase activity, Mean (mtrC-lacZ expression; strain ΔmtrR + mtrR WT, 6.25 µM hormone): 45 Miller units
mtrC-lacZ β-galactosidase activity, Mean (mtrC-lacZ expression; strain ΔmtrR + mtrR WT, 10 µM hormone): 177 Miller units
β-galactosidase activity, Mean (mtrC-lacZ expression; strain ΔmtrR + mtrR WT, 12.5 µM hormone): 50 Miller units
mtrC-lacZ β-galactosidase activity, Mean (mtrC-lacZ expression; [1]): 181 Miller units
β-galactosidase activity, Mean (mtrC-lacZ expression; [1]): 70 Miller units
mtrC-lacZ β-galactosidase activity, Mean (mtrC-lacZ expression; [2]): 213 Miller units
β-galactosidase activity, Mean (mtrC-lacZ expression; [2]): 74 Miller units
mtrC-lacZ β-galactosidase activity, Mean (mtrC-lacZ expression; strain ΔmtrR + mtrR WT, 100 µM hormone): 227 Miller units
mtrC-lacZ β-galactosidase activity, Mean (mtrC-lacZ expression; strain ΔmtrR, 1 µM hormone): 334 Miller units
β-galactosidase activity, Mean (mtrC-lacZ expression; strain ΔmtrR, 6.25 µM hormone): 146 Miller units
mtrC-lacZ β-galactosidase activity, Mean (mtrC-lacZ expression; strain ΔmtrR, 10 µM hormone): 358 Miller units
β-galactosidase activity, Mean (mtrC-lacZ expression; strain ΔmtrR, 12.5 µM hormone): 153 Miller units
β-galactosidase activity, Mean (mtrC-lacZ expression; strain ΔmtrR, 25 µM hormone): 155 Miller units
mtrC-lacZ β-galactosidase activity, Mean (mtrC-lacZ expression; strain ΔmtrR, 50 µM hormone): 284 Miller units
β-galactosidase activity, Mean (mtrC-lacZ expression; strain ΔmtrR, 50 µM hormone): 141 Miller units
mtrC-lacZ β-galactosidase activity, Mean (mtrC-lacZ expression; strain ΔmtrR, 100 µM hormone): 369 Miller units
Plate-6 (Testosterone) Miller units, Mean (mtrC-lacZ expression; testosterone 6.25 µM, plate column 3): 69 Miller units
Plate-6 (Testosterone) Miller units, Mean (mtrC-lacZ expression; testosterone 6.25 µM, plate column 9 (second strain set, columns 7-12)): 96 Miller units
Plate-6 (Testosterone) Miller units, Mean (mtrC-lacZ expression; testosterone 12.5 µM, plate column 4): 81 Miller units
Plate-6 (Testosterone) Miller units, Mean (mtrC-lacZ expression; testosterone 12.5 µM, plate column 10 (second strain set, columns 7-12)): 102 Miller units
Plate-6 (Testosterone) Miller units, Mean (mtrC-lacZ expression; testosterone 25 µM, plate column 5): 98 Miller units
Plate-6 (Testosterone) Miller units, Mean (mtrC-lacZ expression; testosterone 25 µM, plate column 11 (second strain set, columns 7-12)): 112 Miller units
Plate-6 (Testosterone) Miller units, Mean (mtrC-lacZ expression; testosterone 50 µM, plate column 6): 117 Miller units
Plate-6 (Testosterone) Miller units, Mean (mtrC-lacZ expression; testosterone 50 µM, plate column 12 (second strain set, columns 7-12)): 119 Miller units
Miller units, Mean (mtrC-lacZ expression; third strain (lower plate half, wells 1-6; not named), testosterone 6.25 µM): 45 Miller units
Miller units, Mean (mtrC-lacZ expression; third strain (lower plate half, wells 1-6; not named), testosterone 12.5 µM): 50 Miller units
Miller units, Mean (mtrC-lacZ expression; third strain (lower plate half, wells 1-6; not named), testosterone 25 µM): 70 Miller units
Miller units, Mean (mtrC-lacZ expression; third strain (lower plate half, wells 1-6; not named), testosterone 50 µM): 74 Miller units
Miller units, Mean (mtrC-lacZ expression; ΔmtrR (by plate layout), testosterone 6.25 µM): 146 Miller units
Miller units, Mean (mtrC-lacZ expression; ΔmtrR (by plate layout), testosterone 12.5 µM): 153 Miller units
Miller units, Mean (mtrC-lacZ expression; ΔmtrR (by plate layout), testosterone 25 µM): 155 Miller units
Miller units, Mean (mtrC-lacZ expression; ΔmtrR (by plate layout), testosterone 50 µM): 141 Miller units
β-galactosidase activity, Miller units (single replicate) (mtrC-lacZ expression; ΔmtrR + mtrR WT in trans, 1 µM, first data set (c15-c36)): 95 Miller units and 106 Miller units
β-galactosidase activity, Miller units (single replicate) (mtrC-lacZ expression; ΔmtrR + mtrR WT in trans, 6.25 µM, second data set (c53-c74)): 36 Miller units and 39 Miller units and 65 Miller units and 38 Miller units
β-galactosidase activity, Miller units (single replicate) (mtrC-lacZ expression; ΔmtrR + mtrR WT in trans, 10 µM, first data set (c15-c36)): 167 Miller units and 179 Miller units
β-galactosidase activity, Miller units (single replicate) (mtrC-lacZ expression; ΔmtrR + mtrR WT in trans, 12.5 µM, second data set (c53-c74)): 52 Miller units and 40 Miller units and 64 Miller units and 45 Miller units
β-galactosidase activity, Miller units (single replicate) (mtrC-lacZ expression; ΔmtrR + mtrR WT in trans, 25 µM, first data set (c15-c36)): 181 Miller units and 185 Miller units
β-galactosidase activity, Miller units (single replicate) (mtrC-lacZ expression; ΔmtrR + mtrR WT in trans, 25 µM, second data set (c53-c74)): 72 Miller units and 60 Miller units and 77 Miller units
β-galactosidase activity, Miller units (single replicate) (mtrC-lacZ expression; ΔmtrR + mtrR WT in trans, 50 µM, first data set (c15-c36)): 185 Miller units and 193 Miller units
β-galactosidase activity, Miller units (single replicate) (mtrC-lacZ expression; ΔmtrR + mtrR WT in trans, 50 µM, second data set (c53-c74)): 89 Miller units and 62 Miller units and 81 Miller units and 65 Miller units
β-galactosidase activity, Miller units (single replicate) (mtrC-lacZ expression; ΔmtrR + mtrR WT in trans, 100 µM, first data set (c15-c36)): 195 Miller units and 175 Miller units
β-galactosidase activity, Miller units (single replicate) (mtrC-lacZ expression; ΔmtrR, 1 µM, first data set (c15-c36)): 360 Miller units and 326 Miller units and 318 Miller units
β-galactosidase activity, Miller units (single replicate) (mtrC-lacZ expression; ΔmtrR, 6.25 µM, second data set (c53-c74)): 213 Miller units and 147 Miller units and 123 Miller units and 100 Miller units
β-galactosidase activity, Miller units (single replicate) (mtrC-lacZ expression; ΔmtrR, 10 µM, first data set (c15-c36)): 393 Miller units and 347 Miller units and 355 Miller units and 336 Miller units
β-galactosidase activity, Miller units (single replicate) (mtrC-lacZ expression; ΔmtrR, 12.5 µM, second data set (c53-c74)): 202 Miller units and 175 Miller units and 120 Miller units and 117 Miller units
β-galactosidase activity, Miller units (single replicate) (mtrC-lacZ expression; ΔmtrR, 25 µM, first data set (c15-c36)): 325 Miller units and 289 Miller units and 330 Miller units and 304 Miller units
β-galactosidase activity, Miller units (single replicate) (mtrC-lacZ expression; ΔmtrR, 25 µM, second data set (c53-c74)): 194 Miller units and 180 Miller units and 119 Miller units and 125 Miller units
β-galactosidase activity, Miller units (single replicate) (mtrC-lacZ expression; ΔmtrR, 50 µM, first data set (c15-c36)): 298 Miller units and 287 Miller units and 282 Miller units and 269 Miller units
β-galactosidase activity, Miller units (single replicate) (mtrC-lacZ expression; ΔmtrR, 50 µM, second data set (c53-c74)): 175 Miller units and 157 Miller units and 99 Miller units
β-galactosidase activity, Miller units (single replicate) (mtrC-lacZ expression; ΔmtrR, 100 µM, first data set (c15-c36)): 429 Miller units and 358 Miller units and 309 Miller units and 379 Miller units
Kd (MtrR D171A): 30.9 ± 24.2 µM

Reference: PMC10850145, “Hormonal steroids induce multidrug resistance and stress response genes in Neisseria gonorrhoeae by binding to MtrR” (Nature Communications, 2024)
